Source: paper PMC3804605, “Expression and Antimicrobial Function of Beta-Defensin 1 in the Lower Urinary Tract” (PLoS ONE, 2013)

System: UPEC strain UTI89
Test: Microdilution bactericidal assay of recombinant antimicrobial peptides (CFU count, MIC)
Format: cell-based, Escherichia coli
Conditions: for minimum inhibition concentration (MIC), lowest peptide concentration inhibiting growth of 90% of the inoculum: UTI89 10^5 CFU, 0.3125-10 µM peptide in 50 µl 0.1X PBS, 3 hours at 37°C, then plated overnight on LB, CFU versus untreated bacteria; for bactericidal activity toward UPEC in vitro (in words): UTI89, recombinant peptide, microdilution assay
Protocol: Recombinant mBD-3 was synthesized in E. coli (5987-BD, R&D Systems, Minneapolis, MN). Recombinant mBD-14 was synthesized as a mature peptide in E. coli and purified as described. Antimicrobial activity of recombinant peptides was evaluated by microdilution assay. Briefly, UTI89 bacteria (10^5 CFU) were incubated with 0.3125, 0.625, 1.25, 2.5, 5, or 10 µM of mBD-3 or mBD-14 in 50 µl 0.1X PBS buffer for 3 hours at 37°C, then plated overnight on LB at 37°C. Next, the number of CFU at each concentration of peptide was determined. Using untreated bacteria as baseline, the minimum inhibition concentration (MIC) was identified by the lowest peptide concentration inhibiting growth of 90% of the inoculum as described previously. Sensitivity of the UTI89 bacterial strain to killing by antimicrobial peptides was verified with the use of recombinant human RNase 7, yielding MIC of 0.2-0.4 µM, consistent with published data[24].

mBD-3: Recombinant mBD-3 synthesized in E. coli (5987-BD, R&D Systems); protein encoded by Defb3 (KKINNPVSCLRKGGRCWNRCIGNTRQIGSCGVPFLKCCKRK; UniProt Q9WTL0 23-63, looked up)
minimum inhibition concentration (MIC), lowest peptide concentration inhibiting growth of 90% of the inoculum: 1.25 to 2.5 µM | bactericidal activity toward UPEC in vitro (in words): dose-dependent bactericidal activity

mBD-14: Recombinant mBD-14 synthesized as a mature peptide in E. coli and purified; protein encoded by Defb14 (FLPKTLRKFFCRIRGGRCAVLNCLGKEEQIGRCSNSGRKCCRKKK; UniProt Q7TNV9 23-67, looked up)
bactericidal activity toward UPEC in vitro (in words): dose-dependent bactericidal activity

B1: RNase 7: Recombinant human RNase 7, used to verify sensitivity of UTI89 to killing by antimicrobial peptides (protein, UniProt Q9H1E1 29-156, looked up)
Ribonuclease 7: KPKGMTSSQWFKIQHMQPSPQACNSAMKNINKHTKRCKDLNTFLHEPFSSVAATCQTPKIACKNGDKNCHQSHGAVSLTMCKLTSGKHPNCRYKEKRQNKSYVVACKPPQKKDSQQFHLVPVHLDRVL
minimum inhibition concentration (MIC), lowest peptide concentration inhibiting growth of 90% of the inoculum: 0.2 to 0.4 µM
